Source: ChEMBL document CHEMBL1667830, “Non-oxime inhibitors of B-Raf(V600E) kinase” (Bioorg Med Chem Lett, 2011)

Experiments:
[1] = molecular target: Serine/threonine-protein kinase B-raf (Homo sapiens, UniProt P15056, V600E); assay: Inhibition of B-Raf V600E mutant
[2] = AUC (0 to infinity) in mouse at 25 mg/kg, po; format: ADME, organism-based; set-up: time infinity, dose 25 mg/kg, route oral; conditions: plasma
[3] = Cmax in mouse at 25 mg/kg, po; format: ADME, organism-based; set-up: dose 25 mg/kg, route oral; conditions: in vivo
[4] = Permeability across human Caco2 cells; format: ADME, cell-based; conditions: Caco-2, read-out: permeability

Serine/threonine-protein kinase B-raf, sequence (P15056 2-766 V600E limits assumed): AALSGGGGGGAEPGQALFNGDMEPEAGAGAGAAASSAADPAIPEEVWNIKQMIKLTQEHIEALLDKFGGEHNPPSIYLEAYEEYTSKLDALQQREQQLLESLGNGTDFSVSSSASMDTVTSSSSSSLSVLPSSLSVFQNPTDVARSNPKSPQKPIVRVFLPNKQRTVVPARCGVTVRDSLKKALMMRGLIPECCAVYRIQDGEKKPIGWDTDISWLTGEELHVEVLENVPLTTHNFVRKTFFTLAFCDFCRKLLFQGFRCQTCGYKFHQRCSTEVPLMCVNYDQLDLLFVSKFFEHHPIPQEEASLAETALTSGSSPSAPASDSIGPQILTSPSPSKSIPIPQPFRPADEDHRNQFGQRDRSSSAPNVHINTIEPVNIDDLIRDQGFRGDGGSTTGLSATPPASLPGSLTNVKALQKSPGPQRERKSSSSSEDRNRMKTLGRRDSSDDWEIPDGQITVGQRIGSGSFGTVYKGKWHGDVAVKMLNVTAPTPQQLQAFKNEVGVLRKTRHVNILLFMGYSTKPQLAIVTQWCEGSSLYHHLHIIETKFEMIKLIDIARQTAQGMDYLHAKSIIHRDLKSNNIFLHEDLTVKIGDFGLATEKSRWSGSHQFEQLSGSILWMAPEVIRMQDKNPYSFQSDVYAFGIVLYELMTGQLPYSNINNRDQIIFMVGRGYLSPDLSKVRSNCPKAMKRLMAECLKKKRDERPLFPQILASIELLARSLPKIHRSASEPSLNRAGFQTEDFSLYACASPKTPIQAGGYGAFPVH

## CCOC(=O)c1oc2cnccc2c1Nc1ccc2c(N)cccc2c1
[1]
  IC50: 52 nM

## CCOC(=O)c1oc2cnccc2c1Nc1ccc2c(c1)CC/C2=N/O
[1]
  IC50: < 2 nM

## CC(C)NC(=O)c1oc2cnccc2c1Nc1ccc(Cl)c(O)c1
[1]
  IC50: 4 nM

## CCOC(=O)c1oc2cnccc2c1Nc1ccc2c(c1)CCC2=O
[1]
  IC50: 93 nM

## CN1CCN(Cc2cnc(-c3oc4cnccc4c3Nc3ccc4c(O)cccc4c3)nc2)CC1
[1]
  IC50: 2 nM

## CC(C)NC(=O)c1oc2cnccc2c1Nc1ccc2c(c1)Cc1c[nH]nc1-2
[1]
  IC50: 38 nM

## CCOC(=O)c1oc2cnccc2c1Nc1ccc2c(O)c(F)ccc2c1
[1]
  IC50: 3 nM

## O=C(Nc1ncccn1)c1oc2cnccc2c1Nc1ccc(Cl)c(O)c1
[1]
  IC50: 1.6 nM

## CC(C)NC(=O)c1oc2cnccc2c1Nc1ccc2c(O)cccc2c1
[1]
  IC50: 1.4 nM

## Cc1ccc(Nc2c(-c3ncccn3)oc3cnccc23)c2cn[nH]c12
[1]
  IC50: 2.4 nM

## CCOC(=O)c1oc2cnccc2c1Nc1ccc2c(O)cccc2c1
[1]
  IC50: 1.1 nM

## CN/C=C/NC(=O)c1oc2cnccc2c1Nc1ccc2c(c1)Cc1c[nH]nc1-2
[1]
  IC50: 42.9 nM

## c1cnc(-c2oc3cnccc3c2Nc2ccc3c(c2)Cc2c[nH]nc2-3)nc1
[2]
  AUC(0-inf): 10400 ng·h/mL
[3]
  Cmax: 2220 ng/mL
[4]
  Papp: > 8 ×10⁻⁶ cm/s
[1]
  IC50: 4 nM

## OCCCc1n[nH]c2c(Cl)ccc(Nc3c(-c4ncccn4)oc4cnccc34)c12
[1]
  IC50: 0.8 nM

## O=C1CCc2cc(Nc3c(-c4ncccn4)oc4cnccc34)ccc21
[1]
  IC50: 16 nM

## CCOC(=O)c1oc2cnccc2c1Nc1cnc2ccccc2c1
[1]
  IC50: 30 nM

## Cc1cc(Nc2c(-c3ncccn3)oc3cnccc23)c2cn[nH]c2c1Cl
[1]
  IC50: 0.3 nM

## Clc1cc(Nc2c(-c3ncccn3)oc3cnccc23)c2cn[nH]c2c1
[1]
  IC50: 5.7 nM

## CCOC(=O)c1oc2cnccc2c1Nc1ccc(Cl)c(O)c1
[1]
  IC50: 2.3 nM

## Clc1ccc2[nH]ncc2c1Nc1c(-c2ncccn2)oc2cnccc12
[2]
  AUC(0-inf): 17000 ng·h/mL
[3]
  Cmax: 3730 ng/mL
[4]
  Papp: 2 ×10⁻⁶ cm/s
[1]
  IC50: 240 nM

## CCc1n[nH]c2c(Cl)ccc(Nc3c(-c4ncccn4)oc4cnccc34)c12
[1]
  IC50: 0.8 nM

## O/N=C1\NCc2cc(Nc3c(-c4ncccn4)oc4cnccc34)ccc21
[1]
  IC50: 0.5 nM

## CC(C)NC(=O)c1oc2cnccc2c1Nc1ccc2c(c1)CN/C2=N\O
[1]
  IC50: 5.2 nM

## Clc1ccc(Nc2c(-c3ncccn3)oc3cnccc23)c2cn[nH]c12
[4]
  Papp: < 2 ×10⁻⁶ cm/s
[1]
  IC50: 4.2 nM

## c1cnc(-c2oc3cnccc3c2Nc2cccc3[nH]ncc23)nc1
[1]
  IC50: 14 nM

## Fc1ccc(Nc2c(-c3ncccn3)oc3cnccc23)c2cn[nH]c12
[1]
  IC50: 2 nM

## NCCCc1n[nH]c2c(Cl)ccc(Nc3c(-c4ncccn4)oc4cnccc34)c12
[1]
  IC50: 4.3 nM

## Oc1cccc2cc(Nc3c(-c4ncccn4)oc4cnccc34)ccc12
[1]
  IC50: 1 nM

## CC(C)NC(=O)c1oc2cnccc2c1Nc1ccc(Cl)c2[nH]ncc12
[1]
  IC50: 2.7 nM

## CCOC(=O)c1oc2cnccc2c1Nc1ccc2ccccc2c1
[1]
  IC50: 179 nM

## CN(C)/C=C/NC(=O)c1oc2cnccc2c1Nc1ccc2c(O)cccc2c1
[1]
  IC50: 5 nM
